Test results from the NIST ThermoML archive (doi:10.1021/je401120a).

What was measured:
[1] = xn = mol fraction of the nth substance listed; conditions: 101 kPa, Liquid, x2 = 0; for speed of sound: Pulse-echo method; for mass density: Vibrating tube method
[2] = refractive index (Na D-line) (dimensionless); xn = mol fraction of the nth substance listed; conditions: 101 kPa, Liquid, Standard Abbe refractometry, x2 = 0
[3] = Liquid; for viscosity / speed of sound / mass density / electrical conductivity: 101 kPa; for speed of sound: Pulse-echo method; for mass density: Vibrating tube method; for vapor or sublimation pressure: Ebulliometric method (Recirculating still); for electrical conductivity: Crison conductimeter (model GLP31)
[4] = refractive index (Na D-line) (dimensionless); conditions: 101.33 kPa, Liquid, Standard Abbe refractometry

CO [methanol] + CCC[n+]1ccccc1.F[B-](F)(F)F
Conditions	mass density, [1] [kg/m3]	refractive index, [2]	speed of sound, [1] [m/s]	viscosity, [1] [mPa·s]
293.15 K	791.243	1.32843	1118.8	0.5833
303.15 K	781.813	1.32433	1086	0.507
313.15 K	772.287	1.32015	1053.5	0.4438
323.15 K	762.828	1.3167	1021.5	0.3873

CO [methanol]
Conditions	mass density, [3] [kg/m3]	refractive index, [4]	speed of sound, [3] [m/s]	vapor or sublimation pressure, [3] [kPa]	viscosity, [3] [mPa·s]
293.15 K	791.243	1.32843	1118.8	–	0.5833
303.15 K	781.813	1.32433	1086	21.93	0.507
313.15 K	772.287	1.32015	1053.5	–	0.4438
323.15 K	762.828	1.3167	1021.5	55.78	0.3873

CCC[n+]1ccccc1.F[B-](F)(F)F [1-propylpyridinium tetrafluoroborate]
Conditions	electrical conductivity, [3] [S/m]	mass density, [3] [kg/m3]	refractive index, [4]	speed of sound, [3] [m/s]	viscosity, [3] [mPa·s]
293.15 K	0.302	1256.67	1.44588	1653.9	160
303.15 K	0.516	1249.54	1.44322	1629.8	90.75
313.15 K	0.799	1242.43	1.44057	1606.3	56.02
323.15 K	1.15	1235.31	1.43792	1583.3	36.99
